Measured values published in patent US5916586A, “Personal cleansing system comprising polymeric diamond-mesh bath sponge and liquid cleanser with deodorant composition” (priority 1996, dated 1999).

Columns and labels:
lipoxidase (ECI.13.1.13) = target: T1, lipoxidase (ECI.13.1.13) (Glycine max, UniProt P08170); experiment: Lipoxidase test: inhibition of oxidation of linoleic acid by lipoxidase; assay type: biochemical; conditions: test substrate made with 0.5% by weight solution of material in ethanol, borate buffer pH 9.0, increase in OD at 234 nm
T1 sequence (P08170 1-839): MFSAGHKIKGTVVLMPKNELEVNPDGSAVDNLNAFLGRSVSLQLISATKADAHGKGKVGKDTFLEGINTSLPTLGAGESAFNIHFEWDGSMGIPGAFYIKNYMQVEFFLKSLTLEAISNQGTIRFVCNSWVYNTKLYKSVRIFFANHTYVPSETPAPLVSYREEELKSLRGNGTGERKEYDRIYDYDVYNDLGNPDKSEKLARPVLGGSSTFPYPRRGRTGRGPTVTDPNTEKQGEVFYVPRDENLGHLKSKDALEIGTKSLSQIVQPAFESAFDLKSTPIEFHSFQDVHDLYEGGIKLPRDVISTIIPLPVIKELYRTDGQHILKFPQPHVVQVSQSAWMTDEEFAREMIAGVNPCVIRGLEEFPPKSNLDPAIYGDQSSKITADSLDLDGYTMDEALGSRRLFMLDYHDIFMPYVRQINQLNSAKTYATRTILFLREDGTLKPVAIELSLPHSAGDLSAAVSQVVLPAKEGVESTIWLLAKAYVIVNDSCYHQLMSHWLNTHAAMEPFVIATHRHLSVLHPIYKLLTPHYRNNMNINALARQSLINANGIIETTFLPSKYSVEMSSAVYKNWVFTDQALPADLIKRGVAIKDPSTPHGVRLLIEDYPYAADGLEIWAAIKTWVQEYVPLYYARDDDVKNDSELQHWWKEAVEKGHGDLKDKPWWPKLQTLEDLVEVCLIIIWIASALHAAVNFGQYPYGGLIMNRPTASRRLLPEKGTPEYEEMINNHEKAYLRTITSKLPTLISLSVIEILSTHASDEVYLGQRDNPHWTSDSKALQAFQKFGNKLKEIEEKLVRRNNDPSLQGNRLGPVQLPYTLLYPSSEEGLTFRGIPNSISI

[1] = Morpholine test: depression of partial vapor pressure of morpholine beyond Raoult's Law (headspace GC); conditions: morpholine 0.25 g + material 1 g, 37° C., 30 minutes equilibrium, headspace gas chromatography

Structure (SMILES): COC(=O)c1c(C)cc(O)c(C)c1O [LRG 201]
- LIC (lipoxidase-inhibiting capacity, % inhibition) (lipoxidase (ECI.13.1.13)): 100%
- RVR (Raoult variance ratio) [1]: 1.21
